In patent US8414989B2, “Cyclodextrin compositions, articles, and methods” (Cellresin Technologies, LLC, priority 2011, dated 2013):

Columns and labels:
[1] = Example 10: 1-MCP headspace release from inkjet printed multilayer and monolayer films; format: physicochemical; settings: 250 mL bottle, 100 μL water
Text: The ink containing 4 wt-% 1-MCP/c/α-CD from Example 9 was loaded back into the previously emptied cartridge. After refilling the cartridge, it was installed into a HP Inkjet 1600C printer (obtained from the Hewlett-Packard Company of Palo Alto, Calif.) and the calibration or head cleaning function was run. A medium density, black cross-hatch pattern obtained from Microsoft EXCEL software program 2003 (obtained from the Microsoft Corporation of Redman, Wash.) was used to format the entire printable page. The EXCEL pattern image was printed onto 3M, CG3460 Transparency Film (polyester film 120 microns thick for HP inkjet printers; obtained from the 3M Company of St. Paul, Minn.) using the dried, milled ink containing 4 wt-% 1-MCP/c/α-CD of Example 9. Immediately after printing, the printed side of the transparency film was overlaid with a 25 μm polyethylene film and then passed by hand about 10 cm beneath a medium pressure mercury arc lamp operating at 79 watts per cm for 3 seconds exposure to the lamp, with the polyethylene side facing the lamp. The methodology simulates a multilayer flexible-package where the inner surface of an outer, transparent, layer of the multilayer flexible material was printed (referred to as reverse printing). The printed surface was then laminated to other layers. The outside layer itself serves to protect the ink from abuse.
The following technique was designed to measure the permeability of 1-MCP, which was released from the reverse inkjet printed 3M Transparency Film, through PE film as the “inner layer” of a multilayer produce package. In a multilayer produce package, as the humidity rises inside the package by respiration of fresh agricultural products, the water vapor reaches a concentration that allows it to diffuse to the outside of the package. In this example, water also diffuses through the ink layer containing 1-MCP/c/α-CD. The reverse printed ink on the PET film releases 1-MCP which diffuses through the PE film into the interior of package (headspace) under a gradient of low 1-MCP concentration inside the bottle headspace and high 1-MCP concentration within the multilayer structure.
Using a paper cutter, a 5.5 cm by 16 cm rectangle (88 cm^2) was cut from the multilayer structure of the printed, cured ink on the PET sheet overlaid with PE. The rectangle was placed in a 250 mL serum bottle. The bottle was then sealed with a TEFLON® faced silicone septa. Then 100 μL of deionized water was injected into the bottle. […] Bottle headspace was analyzed at 0.17, 0.5, 1, 2, 4, and 24 hours after the injection of water using the technique employed in Example 3. The results in Table 8 illustrate 1-MCP headspace concentration as a function of time for the “multilayer” film.
A second piece of PET transparency film was printed as in Example 9 except that the transparency film was not covered with PE film; the printed ImTech UVBLK Series 912 ink was cured on the PET film surface using a medium pressure mercury arc lamp operating at 79 watts per cm in the same manner as for Example 9. Then, using a paper cutter, a 1.2 cm by 16 cm rectangle (19 cm^2) was cut from the sheet. The rectangle was placed in 250 mL serum bottle. The bottle was then sealed with a TEFLON® faced silicone septa. Then 100 μL of deionized water was injected into the bottle. […] Bottle headspace was analyzed at 0.17, 0.5, 1, 2, 4, and 24 hours after the injection of water using the technique employed in Example 3. The headspace concentration of 1-MCP as a function of time is also reported in Table 9 for the “monolayer” film.

[2] = Example 3: 1-MCP headspace release versus wt-% 1-MCP/c/α-CD in UV-cured coating; format: physicochemical; settings: 2.5 cm x 10 cm, 250 mL bottle, 20 μL water, 24 hours
Description: A 20 mL bottle was charged with 9.6 g of UV Coating VP 10169/60 MF-2NE (obtained from Verga GmbH of Aschau am Inn, Germany). Then 0.4 g of 1-MCP/α-cyclodextrin complex (4.7% 1-MCP obtained from AgroFresh of Spring House, Pa.) termed “1-MCP/c/α-CD” was added to the bottle. The bottle was then firmly capped and shaken by hand by hand until the blends appear uniformly dispersed, resulting in a 4.0 wt-% 1-MCP/c/α-CD blend. Three additional blends containing 2.0 wt-%, 1.0 wt-% and 0.5 wt-% of 1-MCP/c/α-CD were prepared in the same manner.
A rubber ink roller was used to deliver a thin (nominally 0.3 μm) coating to a 20 cm by 20 cm polyethylene extrusion coated paper sheet using the technique of Example 2.
Using razor blade, 2.5 cm×10 cm rectangles were cut from the coated portion of each of the sheets. Then the coated rectangular sheets were cured using the procedure of Example 2. Each cured, coated rectangle was placed in a 250 mL serum bottle. The bottle was then sealed with TEFLON® faced silicone septa. Then 20 μL of deionized water was injected into each bottle. […] Headspace was analyzed for 1-MCP 24 hours after the injection of water, using the technique employed in Example 2, and employing the 6-point 1-butene calibration curve as described in Example 2. Table 2 and FIG. 2 give the 24-hour average 1-MCP headspace concentration and standard deviation for each of the coated and cured rectangular sheets.

For `CC1=CC1` [1-MCP, 1-methylcyclopropene], the “Headspace concentration of 1-MCP” value ([1]; 19 cm^2 Monolayer (printed PET, no PE film), 0.17 hours) was 0.50 ppm (v/v), the “Headspace concentration of 1-MCP” value ([1]; 19 cm^2 Monolayer (printed PET, no PE film), 0.5 hours) was 0.52 ppm (v/v) and the “Headspace concentration of 1-MCP” value ([1]; 19 cm^2 Monolayer (printed PET, no PE film), 1 hour) was 0.50 ppm (v/v). For the same compound, the “Headspace concentration of 1-MCP” value ([1]; 19 cm^2 Monolayer (printed PET, no PE film), 2 hours) was 0.51 ppm (v/v), the “Headspace concentration of 1-MCP” value ([1]; 19 cm^2 Monolayer (printed PET, no PE film), 4 hours) was 0.52 ppm (v/v) and the “Headspace concentration of 1-MCP” value ([1]; 19 cm^2 Monolayer (printed PET, no PE film), 24 hours) was 0.49 ppm (v/v). For the same compound, the “Headspace concentration of 1-MCP” value ([1]; 88 cm^2 Multilayer (inkjet printed PET overlaid with 25 μm PE), 0.17 hours) was 0.25 ppm (v/v), the “Headspace concentration of 1-MCP” value ([1]; 88 cm^2 Multilayer (inkjet printed PET overlaid with 25 μm PE), 0.5 hours) was 0.46 ppm (v/v) and the “Headspace concentration of 1-MCP” value ([1]; 88 cm^2 Multilayer (inkjet printed PET overlaid with 25 μm PE), 1 hour) was 1.1 ppm (v/v). For the same compound, the “Headspace concentration of 1-MCP” value ([1]; 88 cm^2 Multilayer (inkjet printed PET overlaid with 25 μm PE), 2 hours) was 1.5 ppm (v/v), the “Headspace concentration of 1-MCP” value ([1]; 88 cm^2 Multilayer (inkjet printed PET overlaid with 25 μm PE), 4 hours) was 3.2 ppm (v/v) and the “Headspace concentration of 1-MCP” value ([1]; 88 cm^2 Multilayer (inkjet printed PET overlaid with 25 μm PE), 24 hours) was 8.3 ppm (v/v). The “Headspace concentration of 1-MCP, Ave.” value ([2]; 0.5 wt-% 1-MCP/c/α-CD coating) was 0.09 ppm (v/v), the “Headspace concentration of 1-MCP, Ave.” value ([2]; 1 wt-% 1-MCP/c/α-CD coating) was 0.20 ppm (v/v) and the “Headspace concentration of 1-MCP, Ave.” value ([2]; 2 wt-% 1-MCP/c/α-CD coating) was 0.56 ppm (v/v). For the same compound, the “Headspace concentration of 1-MCP, Ave.” value ([2]; 4 wt-% 1-MCP/c/α-CD coating) was 1.1 ppm (v/v).
